# Data published in patent US20230405132A1, “ANTITUMOR PHARMACEUTICAL COMPOSITION AND USE THEREOF” (JENKEM TECHNOLOGY CO., LTD. (TIANJIN), priority 2020, published 2023).
# Structures can show the parent of a compound that is named as a salt.
# How the values were obtained:
# SK-N-SH cells = assay: SK-N-SH subcutaneous tumor model in mice: tumor volume and tumor growth inhibition; format: in vivo, mouse; conditions: for tumor inhibition rate: SK-N-SH subcutaneous tumor model; for Tumor volume, mean ± standard error: TMZ 20 mg/kg PO, irinotecan hydrochloride or PEG-irinotecan 30 mg/kg IV
# Experimental: SK-N-SH cells were cultured in an EMEM medium containing 10% heat-inactivated fetal bovine serum, 100 μg/mL penicillin, and 100 μg/mL streptomycin (incubator condition: 37° C., 5% CO 2). The cells were subcultured twice a week. The cells in the exponential phase were collected, and counted grafting.
# 2.2 Tumor grafting and grouping 100 μL of a mixture of EMEM and 50% matrigel containing 5×10^6 SK-N-SH cells was grafted subcutaneously at the right abdomen of a mouse, and the tumor growth was observed. 80 animals were randomized according to tumor volume (103 mm 3) by using the grouping randomization method in Excel. […] Each group had 10 tumor-bearing mice.
# Tumor volume was measured twice a week using a vernier caliper.
# (§1) The body weight and tumor volume were compared by using two-way ANOVA analysis. All data were analyzed using GraphPad Prism 5. p<0.05 indicates statistical significance.
# [1] = Body weight of tumor-bearing mice during treatment; format: in vivo, mouse; conditions: TMZ 20 mg/kg PO, irinotecan hydrochloride or PEG-irinotecan 30 mg/kg IV
# Experimental: All procedures related to animal handling, care, and treatment in this study were performed according to the assessment of the Institutional Animal Care and Use Committee (IACUC) approved by Shanghai BioDuro Co., Ltd. (the CRO) and followed guidelines of the Association for Assessment and Accreditation of Laboratory Animal Care (AAALAC, accreditation number: 001516). In routine monitoring, the animals were examined that whether any adverse effects of tumor growth and/or treatment on normal behavior were present, such as motility, food and water consumption (by observation only), and body weight gain/loss (the body weight was measured twice a week during the pre-administration phase and daily during the administration phase), eye/hair matting and any other abnormalities.
# as §1
Compound,1 − T/C (tumor inhibition rate TGI) (SK-N-SH cells; D 34),tumor inhibition rate (SK-N-SH cells),"TV (b: Tumor volume on day 34) (SK-N-SH cells; Table 5, day 34)","Tumor volume, mean ± standard error (SK-N-SH cells; day 27)","Tumor volume, mean ± standard error (SK-N-SH cells; day 31)","Tumor volume, mean ± standard error (SK-N-SH cells; day 34)","Tumor volume, mean ± standard error (SK-N-SH cells; day 38)","Tumor volume, mean ± standard error (SK-N-SH cells; day 41)","Animal body weight, mean ± standard error ([1]; day 24)","Animal body weight, mean ± standard error ([1]; day 27)","Animal body weight, mean ± standard error ([1]; day 31)","Animal body weight, mean ± standard error ([1]; day 34)","Animal body weight, mean ± standard error ([1]; day 38)","Animal body weight, mean ± standard error ([1]; day 41)",T/C (relative tumor proliferation rate) (SK-N-SH cells; D 34)
Cn1nnc2c(C(N)=O)ncn2c1=O [Temozolomide],25.04%,25.0%,1827.5 ± 262.2 mm^3,462.9 ± 67.1 mm^3,1071 ± 144.9 mm^3,1827.5 ± 262.2 (n = 9) mm^3,2179.6 ± 209.6 (n = 5) mm^3,3004.1 ± 100.8 (n = 2) mm^3,21.7 ± 0.4 g,21.5 ± 0.5 g,22 ± 0.6 g,23.7 ± 0.7 (n = 9) g,22.5 ± 0.5 (n = 5) g,23.3 ± 1.1 (n = 2) g,
CCc1c2c(nc3ccc(OC(=O)N4CCC(N5CCCCC5)CC4)cc13)-c1cc3c(c(=O)n1C2)COC(=O)[C@]3(O)CC [Irinotecan hydrochloride],30.99%,31.0%,,,,,,,22 ± 0.4 g,21.8 ± 0.5 g,23 ± 0.5 g,24.3 ± 0.5 g,23.2 ± 0.4 (n = 8) g,21 (n = 1) g,69.01%
